Several values for one entry are separate records, joined by “and”; a condition that tells them apart may be missing. Equal values may be shown once. Read-outs that look alike come from different tables or passages of the source.
Assays:
Experiment in all cases: KiNativ assay
Format in all cases: binding
Conditions in all cases: H929 live cell
TAO1, TAO3 = tested on: TAO1, TAO3
Description: (§1) Biochemical IC50s of the compounds of the present disclosure against various kinases were measured in a KiNativ assay. Compounds were screened in duplicate at 10 μM in H929 live cell. IC50 was measured via Mass spectroscopy (MS).

MLKL = MLKL (Homo sapiens (Human), UniProt Q8NB16)
Description: as §1

MST1 = MST1 (Homo sapiens (Human), UniProt Q13043)
Description: as §1

MST1, MST2 = tested on: MST1, MST2
Description: as §1

ILK = ILK (Homo sapiens (Human), UniProt Q13418)
Description: as §1

NEK9 = NEK9 (Homo sapiens (Human), UniProt Q8TD19)
Description: as §1

LKB1 = LKB1 (Homo sapiens (Human), UniProt Q15831)
Description: as §1

SLK = SLK (Homo sapiens (Human), UniProt Q9H2G2)
Description: as §1

MST3 = MST3 (Homo sapiens (Human), UniProt Q9Y6E0)
Description: as §1

MSK2 domain1 = MSK2 domain1 (Homo sapiens (Human), UniProt O75676)
Description: as §1

RSK2 domain1 = RSK2 domain1 (Homo sapiens (Human), UniProt P51812)
Description: as §1

RSK1 domain2 = RSK1 domain2 (Homo sapiens (Human), UniProt Q15418)
Description: as §1

IRE1 = IRE1 (Homo sapiens (Human), UniProt O75460)
Description: as §1

CDK7 = CDK7 (Homo sapiens (Human), UniProt P50613)
Description: as §1

PKCz = PKCz (Homo sapiens (Human), UniProt Q05513)
Description: as §1

PRP4 = PRP4 (Homo sapiens (Human), UniProt Q13523)
Description: as §1

EphB2 = EphB2 (Homo sapiens (Human), UniProt P29323)
Description: as §1

PIK3C3 = PIK3C3 (Homo sapiens (Human), UniProt Q8NEB9)
Description: as §1

IKKb = IKKb (Homo sapiens (Human), UniProt O14920)
Description: as §1

CaMK1d = CaMK1d (Homo sapiens (Human), UniProt Q8IU85)
Description: as §1

NuaK1 = NuaK1 (Homo sapiens (Human), UniProt O60285)
Description: as §1

TAO2 = TAO2 (Homo sapiens (Human), UniProt Q9UL54)
Description: as §1

GCK = GCK (Homo sapiens (Human), UniProt Q12851)
Description: as §1

ABL, ARG = tested on: ABL, ARG
Description: as §1

Wnk1, Wnk2, Wnk3 = tested on: Wnk1, Wnk2, Wnk3
Description: as §1

JAK1 domain2 = JAK1 domain2 (Homo sapiens (Human), UniProt P23458)
Description: as §1

[1] = tested on: RSK1 domain1, RSK2 domain1, RSK3 domain1
Description: as §1

PRPK = PRPK (Homo sapiens (Human), UniProt Q96S44)
Description: as §1

p70S6K = p70S6K (Homo sapiens (Human), UniProt P23443)
Description: as §1

p70S6Kb = p70S6Kb (Homo sapiens (Human), UniProt Q9UBS0)
Description: as §1

MAP2K7 = MAP2K7 (Homo sapiens (Human), UniProt O14733)
Description: as §1

MAST3 = MAST3 (Homo sapiens (Human), UniProt O60307)
Description: as §1

AurB = AurB (Homo sapiens (Human), UniProt Q96GD4)
Description: as §1

NuaK1, sequence (O60285 whole entry): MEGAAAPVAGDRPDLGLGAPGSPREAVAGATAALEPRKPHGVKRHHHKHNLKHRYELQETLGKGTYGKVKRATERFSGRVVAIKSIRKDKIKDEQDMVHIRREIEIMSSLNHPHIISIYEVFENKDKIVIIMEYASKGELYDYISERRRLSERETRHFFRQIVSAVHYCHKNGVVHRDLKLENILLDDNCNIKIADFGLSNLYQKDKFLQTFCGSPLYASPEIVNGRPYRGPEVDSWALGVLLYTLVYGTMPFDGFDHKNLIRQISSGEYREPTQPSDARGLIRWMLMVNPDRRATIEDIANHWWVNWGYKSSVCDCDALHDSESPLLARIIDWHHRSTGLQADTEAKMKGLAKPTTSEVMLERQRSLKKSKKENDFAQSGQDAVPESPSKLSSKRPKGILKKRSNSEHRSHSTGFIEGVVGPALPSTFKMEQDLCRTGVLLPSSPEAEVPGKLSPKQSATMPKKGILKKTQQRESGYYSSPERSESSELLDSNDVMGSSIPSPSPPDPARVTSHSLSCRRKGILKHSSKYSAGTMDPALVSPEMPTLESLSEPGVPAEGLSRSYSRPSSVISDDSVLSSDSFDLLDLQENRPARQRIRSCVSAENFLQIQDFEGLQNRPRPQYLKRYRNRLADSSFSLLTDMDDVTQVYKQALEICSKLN
TAO2, sequence (Q9UL54 whole entry): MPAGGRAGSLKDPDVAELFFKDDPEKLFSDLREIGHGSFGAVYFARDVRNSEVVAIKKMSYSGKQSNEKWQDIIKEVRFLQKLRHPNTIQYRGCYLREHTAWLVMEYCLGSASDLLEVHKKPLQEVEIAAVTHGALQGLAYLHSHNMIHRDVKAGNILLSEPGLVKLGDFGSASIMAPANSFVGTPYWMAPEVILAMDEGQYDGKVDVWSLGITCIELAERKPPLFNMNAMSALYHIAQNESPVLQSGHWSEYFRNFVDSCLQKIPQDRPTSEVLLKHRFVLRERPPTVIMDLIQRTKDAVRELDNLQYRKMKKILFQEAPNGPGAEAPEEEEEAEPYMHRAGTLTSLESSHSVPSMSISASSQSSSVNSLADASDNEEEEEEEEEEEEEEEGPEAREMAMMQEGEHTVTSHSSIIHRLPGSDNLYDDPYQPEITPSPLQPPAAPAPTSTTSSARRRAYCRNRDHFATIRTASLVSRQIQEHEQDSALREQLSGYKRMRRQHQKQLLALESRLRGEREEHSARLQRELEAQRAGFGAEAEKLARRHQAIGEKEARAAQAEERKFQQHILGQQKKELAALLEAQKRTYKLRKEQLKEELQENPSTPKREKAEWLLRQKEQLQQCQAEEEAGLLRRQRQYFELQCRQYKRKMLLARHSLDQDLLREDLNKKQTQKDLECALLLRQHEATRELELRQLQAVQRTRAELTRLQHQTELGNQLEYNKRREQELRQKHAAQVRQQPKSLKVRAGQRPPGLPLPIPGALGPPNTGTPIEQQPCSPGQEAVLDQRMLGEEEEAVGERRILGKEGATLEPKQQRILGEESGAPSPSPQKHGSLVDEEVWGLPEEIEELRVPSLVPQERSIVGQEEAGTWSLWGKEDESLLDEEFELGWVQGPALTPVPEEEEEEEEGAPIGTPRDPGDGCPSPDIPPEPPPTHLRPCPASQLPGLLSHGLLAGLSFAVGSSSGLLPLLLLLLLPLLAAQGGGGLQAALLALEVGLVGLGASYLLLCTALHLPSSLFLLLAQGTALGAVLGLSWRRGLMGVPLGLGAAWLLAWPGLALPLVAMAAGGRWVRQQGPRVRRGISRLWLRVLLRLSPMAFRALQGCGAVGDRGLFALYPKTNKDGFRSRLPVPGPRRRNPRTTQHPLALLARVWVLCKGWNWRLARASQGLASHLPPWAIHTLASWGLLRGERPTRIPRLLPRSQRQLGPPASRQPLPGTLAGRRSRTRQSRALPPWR
MLKL, sequence (Q8NB16 whole entry): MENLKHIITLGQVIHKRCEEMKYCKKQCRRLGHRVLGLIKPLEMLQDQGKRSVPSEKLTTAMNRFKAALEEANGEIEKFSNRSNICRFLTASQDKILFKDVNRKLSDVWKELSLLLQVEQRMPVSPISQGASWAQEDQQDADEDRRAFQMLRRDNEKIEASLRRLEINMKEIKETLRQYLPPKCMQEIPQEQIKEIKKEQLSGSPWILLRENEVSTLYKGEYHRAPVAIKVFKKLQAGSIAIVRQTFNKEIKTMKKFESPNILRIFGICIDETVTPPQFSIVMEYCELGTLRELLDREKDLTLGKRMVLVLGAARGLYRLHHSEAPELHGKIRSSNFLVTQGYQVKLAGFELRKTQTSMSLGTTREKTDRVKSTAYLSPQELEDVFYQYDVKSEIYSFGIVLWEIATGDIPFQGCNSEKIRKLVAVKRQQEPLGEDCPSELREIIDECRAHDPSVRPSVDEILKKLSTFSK
GCK, sequence (Q12851 whole entry): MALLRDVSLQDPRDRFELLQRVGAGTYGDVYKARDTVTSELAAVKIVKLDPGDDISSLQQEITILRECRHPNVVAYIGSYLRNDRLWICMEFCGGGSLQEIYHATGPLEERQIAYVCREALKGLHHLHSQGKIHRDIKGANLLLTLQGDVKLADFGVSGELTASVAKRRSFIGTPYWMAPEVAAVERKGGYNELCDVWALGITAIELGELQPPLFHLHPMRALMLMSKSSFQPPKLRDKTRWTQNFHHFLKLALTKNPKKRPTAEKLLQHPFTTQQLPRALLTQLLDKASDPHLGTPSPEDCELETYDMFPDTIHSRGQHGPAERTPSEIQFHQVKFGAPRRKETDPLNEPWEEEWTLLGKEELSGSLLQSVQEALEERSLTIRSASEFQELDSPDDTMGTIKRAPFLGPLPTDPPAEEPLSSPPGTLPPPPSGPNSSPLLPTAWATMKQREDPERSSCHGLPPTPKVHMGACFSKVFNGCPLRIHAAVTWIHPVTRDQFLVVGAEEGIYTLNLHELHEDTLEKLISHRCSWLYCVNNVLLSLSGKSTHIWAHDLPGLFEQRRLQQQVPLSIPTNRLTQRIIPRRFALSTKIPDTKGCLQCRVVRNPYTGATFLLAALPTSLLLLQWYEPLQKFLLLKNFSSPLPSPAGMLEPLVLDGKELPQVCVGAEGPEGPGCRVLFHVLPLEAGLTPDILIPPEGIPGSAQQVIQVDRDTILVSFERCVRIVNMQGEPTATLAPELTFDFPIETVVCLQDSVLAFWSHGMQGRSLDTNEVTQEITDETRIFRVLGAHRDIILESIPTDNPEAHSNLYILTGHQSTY
MSK2 domain1, sequence (O75676 whole entry, the tested form may be a part): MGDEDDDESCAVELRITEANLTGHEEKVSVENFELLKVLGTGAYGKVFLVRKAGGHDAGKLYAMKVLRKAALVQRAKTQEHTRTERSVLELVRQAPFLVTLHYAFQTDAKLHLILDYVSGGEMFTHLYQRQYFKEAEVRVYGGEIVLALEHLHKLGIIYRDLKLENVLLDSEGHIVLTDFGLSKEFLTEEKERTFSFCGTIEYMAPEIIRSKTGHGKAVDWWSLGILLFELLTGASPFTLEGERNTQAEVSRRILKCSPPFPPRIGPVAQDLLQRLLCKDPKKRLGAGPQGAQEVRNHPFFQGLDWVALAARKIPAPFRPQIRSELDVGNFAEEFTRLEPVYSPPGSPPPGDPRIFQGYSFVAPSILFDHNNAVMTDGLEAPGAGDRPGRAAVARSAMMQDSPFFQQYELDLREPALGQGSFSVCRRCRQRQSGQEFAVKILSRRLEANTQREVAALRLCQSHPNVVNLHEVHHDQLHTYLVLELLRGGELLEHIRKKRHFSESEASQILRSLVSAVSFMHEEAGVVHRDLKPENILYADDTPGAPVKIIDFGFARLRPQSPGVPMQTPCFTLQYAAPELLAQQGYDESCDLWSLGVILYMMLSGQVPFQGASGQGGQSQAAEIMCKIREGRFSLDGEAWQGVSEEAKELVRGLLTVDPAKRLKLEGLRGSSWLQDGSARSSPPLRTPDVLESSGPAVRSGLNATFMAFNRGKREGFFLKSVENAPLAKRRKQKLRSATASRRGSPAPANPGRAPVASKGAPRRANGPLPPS
EphB2, sequence (P29323 19-1055): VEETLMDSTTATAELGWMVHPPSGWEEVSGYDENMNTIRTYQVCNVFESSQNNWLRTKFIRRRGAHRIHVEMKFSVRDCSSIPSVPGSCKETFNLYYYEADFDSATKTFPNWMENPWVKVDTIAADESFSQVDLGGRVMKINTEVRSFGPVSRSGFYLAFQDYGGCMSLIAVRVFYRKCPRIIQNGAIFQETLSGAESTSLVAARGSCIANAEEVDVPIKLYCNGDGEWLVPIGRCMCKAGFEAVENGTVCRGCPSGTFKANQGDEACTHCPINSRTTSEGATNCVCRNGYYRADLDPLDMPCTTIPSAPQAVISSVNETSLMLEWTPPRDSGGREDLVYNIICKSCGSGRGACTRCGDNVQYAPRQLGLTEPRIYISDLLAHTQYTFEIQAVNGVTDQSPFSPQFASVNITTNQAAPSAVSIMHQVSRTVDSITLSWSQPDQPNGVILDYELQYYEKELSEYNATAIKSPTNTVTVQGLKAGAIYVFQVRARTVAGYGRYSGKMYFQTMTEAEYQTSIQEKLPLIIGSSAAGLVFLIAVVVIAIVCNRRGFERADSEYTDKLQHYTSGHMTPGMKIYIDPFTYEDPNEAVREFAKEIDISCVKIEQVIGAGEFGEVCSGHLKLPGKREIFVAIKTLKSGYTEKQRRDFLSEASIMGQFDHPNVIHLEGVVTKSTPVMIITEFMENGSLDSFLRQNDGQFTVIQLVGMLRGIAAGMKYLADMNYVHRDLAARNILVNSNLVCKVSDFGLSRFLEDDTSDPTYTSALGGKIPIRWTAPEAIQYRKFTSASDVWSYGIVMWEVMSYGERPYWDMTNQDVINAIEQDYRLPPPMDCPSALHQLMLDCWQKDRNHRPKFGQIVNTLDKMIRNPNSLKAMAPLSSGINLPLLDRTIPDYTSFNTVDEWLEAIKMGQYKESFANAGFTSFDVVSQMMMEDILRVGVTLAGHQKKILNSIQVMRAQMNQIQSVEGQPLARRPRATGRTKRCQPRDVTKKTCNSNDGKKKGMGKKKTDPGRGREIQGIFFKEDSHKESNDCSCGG

Nc1ncc(-c2cccc3ncsc23)cc1-c1ccc2c(c1)CCNC2=O [Compound I-13, 6-(2-amino-5-(benzo[d]thiazol-7-yl)pyridin-3-yl)-3,4-dihydroisoquinolin-1(2H)-one] was tested, and the “% inhibition (range)” value (TAO1, TAO3; 10 μM) was 0.0%, the “inhibition (10 μM)” value (TAO1, TAO3) was 10.3% and the inhibition at 10 µM (MLKL; read-out: % inhibition (range)) was 0%. The inhibition at 10 µM (MLKL; read-out: inhibition (10 μM)) was 15.2%, the inhibition at 10 µM (MST1; read-out: % inhibition (range)) was 75 to 90% and the inhibition at 10 µM (MST1; read-out: inhibition (10 μM)) was 89%. For the same molecule, the “% inhibition (range)” value (MST1, MST2; 10 μM) was 75-90%, the “inhibition (10 μM)” value (MST1, MST2) was 89.4% and the inhibition at 10 µM (ILK; read-out: % inhibition (range)) was 0%. For the same molecule, the inhibition at 10 µM (ILK; read-out: inhibition (10 μM)) was 1.6%, the inhibition at 10 µM (NEK9; read-out: % inhibition (range)) was 0% and the inhibition at 10 µM (NEK9; read-out: inhibition (10 μM)) was -10%. The inhibition at 10 µM (LKB1; read-out: % inhibition (range)) was 0%, the inhibition at 10 µM (LKB1; read-out: inhibition (10 μM)) was 4.3% and the inhibition at 10 µM (SLK; read-out: % inhibition (range)) was 35 to 50%. It also gave an inhibition at 10 µM (SLK; read-out: inhibition (10 μM)) of 49.2%, an inhibition at 10 µM (MST3; read-out: % inhibition (range)) of 0% and an inhibition at 10 µM (MST3; read-out: inhibition (10 μM)) of -1.8%. The inhibition at 10 µM (MSK2 domain1; read-out: % inhibition (range)) was 0%, the inhibition at 10 µM (MSK2 domain1; read-out: inhibition (10 μM)) was -6.1% and the inhibition at 10 µM (RSK2 domain1; read-out: % inhibition (range)) was 0%. For the same molecule, the inhibition at 10 µM (RSK2 domain1; read-out: inhibition (10 μM)) was 19.2%, the inhibition at 10 µM (RSK1 domain2; read-out: % inhibition (range)) was 0% and the inhibition at 10 µM (RSK1 domain2; read-out: inhibition (10 μM)) was -7.7%. It also gave an inhibition at 10 µM (IRE1; read-out: % inhibition (range)) of 0%, an inhibition at 10 µM (IRE1; read-out: inhibition (10 μM)) of -17% and an inhibition at 10 µM (CDK7; read-out: % inhibition (range)) of 0%. It also gave an inhibition at 10 µM (CDK7; read-out: inhibition (10 μM)) of 32.9%, an inhibition at 10 µM (PKCz; read-out: % inhibition (range)) of 0% and an inhibition at 10 µM (PKCz; read-out: inhibition (10 μM)) of 15.5%. It also gave an inhibition at 10 µM (PRP4; read-out: % inhibition (range)) of 50 to 75%, an inhibition at 10 µM (PRP4; read-out: inhibition (10 μM)) of 73.4% and an inhibition at 10 µM (EphB2; read-out: % inhibition (range)) of 0%. It also gave an inhibition at 10 µM (EphB2; read-out: inhibition (10 μM)) of 22.1%, an inhibition at 10 µM (PIK3C3; read-out: % inhibition (range)) of 0% and an inhibition at 10 µM (PIK3C3; read-out: inhibition (10 μM)) of 24.8%. The inhibition at 10 µM (IKKb; read-out: % inhibition (range)) was 0%, the inhibition at 10 µM (IKKb; read-out: inhibition (10 μM)) was -3.3% and the inhibition at 10 µM (CaMK1d; read-out: % inhibition (range)) was 0%. The inhibition at 10 µM (CaMK1d; read-out: inhibition (10 μM)) was 16.2%, the “% inhibition (range)” value (NuaK1; 10 μM) was 50-75% and 75-90% and the “inhibition (10 μM)” value (NuaK1) was 83.7%. The inhibition at 10 µM (NuaK1; read-out: inhibition (10 μM)) was 71.7%, the inhibition at 10 µM (TAO2; read-out: % inhibition (range)) was 0% and the inhibition at 10 µM (TAO2; read-out: inhibition (10 μM)) was -19.7%. For the same molecule, the inhibition at 10 µM (GCK; read-out: % inhibition (range)) was 75 to 90%, the inhibition at 10 µM (GCK; read-out: inhibition (10 μM)) was 77.3% and the “% inhibition (range)” value (ABL, ARG; 10 μM) was 50-75%. For the same molecule, the “inhibition (10 μM)” value (ABL, ARG) was 53.5%, the “% inhibition (range)” value (Wnk1, Wnk2, Wnk3; 10 μM) was 0.0% and the “inhibition (10 μM)” value (Wnk1, Wnk2, Wnk3) was −69.3%. The inhibition at 10 µM (JAK1 domain2; read-out: % inhibition (range)) was 0%, the inhibition at 10 µM (JAK1 domain2; read-out: inhibition (10 μM)) was -16% and the “% inhibition (range)” value ([1]; 10 μM) was 0.0%. For the same molecule, the “inhibition (10 μM)” value [1] was 13.1%, the inhibition at 10 µM (PRPK; read-out: % inhibition (range)) was 0% and the inhibition at 10 µM (PRPK; read-out: inhibition (10 μM)) was -6.4%. The inhibition at 10 µM (p70S6K; read-out: % inhibition (range)) was 0%, the inhibition at 10 µM (p70S6K; read-out: inhibition (10 μM)) was -14.3% and the inhibition at 10 µM (p70S6Kb; read-out: % inhibition (range)) was 0%. It also gave an inhibition at 10 µM (p70S6Kb; read-out: inhibition (10 μM)) of -17.4%, an inhibition at 10 µM (MAP2K7; read-out: % inhibition (range)) of 0% and an inhibition at 10 µM (MAP2K7; read-out: inhibition (10 μM)) of 15.1%. For the same molecule, the inhibition at 10 µM (MAST3; read-out: % inhibition (range)) was 0%, the inhibition at 10 µM (MAST3; read-out: inhibition (10 μM)) was 22% and the inhibition at 10 µM (AurB; read-out: % inhibition (range)) was 0%. For the same molecule, the inhibition at 10 µM (AurB; read-out: inhibition (10 μM)) was 20.7%.
